Results taken from PubChem BioAssay (NCI).
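Growth conditions: 96-well plates. Treatment: test compound, 48 hours, 5 concentrations. Analysis: linear interpolation between bracketing concentrations; unreached endpoints set to highest concentration. The concentration for 50% growth inhibition is given as GI50. TGI: total growth inhibition.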

Legend:
Experiment in all cases: NCI-60 cell line screen, 48 h
[1] = tested on: BT-549 breast
[2] = tested on: COLO 205 colon
[3] = tested on: SK-MEL-2 melanoma
[4] = tested on: HCT-15 colon
[5] = tested on: SK-MEL-5 melanoma
[6] = tested on: NCI-H23 lung
[7] = tested on: UACC-257 melanoma
[8] = tested on: UACC-62 melanoma
[9] = tested on: KM12 colon
[10] = tested on: SK-OV-3 ovarian
[11] = tested on: DU-145 prostate
[12] = tested on: MCF7 breast
[13] = tested on: OVCAR-4 ovarian
[14] = tested on: A549 NSCLC
[15] = tested on: MDA-MB-435
[16] = tested on: HCC-2998 colon
[17] = tested on: ACHN renal
[18] = tested on: M14 melanoma
[19] = tested on: RPMI-8226 leukemia
[20] = tested on: HOP-92 NSCLC
[21] = tested on: SF-295 CNS
[22] = tested on: UO-31 renal
[23] = tested on: CAKI-1 renal
[24] = tested on: EKVX NSCLC
[25] = tested on: SF-539 CNS
[26] = tested on: HL-60(TB) leukemia
[27] = tested on: 786-0 renal
[28] = tested on: MOLT-4 leukemia
[29] = tested on: PC-3 prostate
[30] = tested on: T-47D breast
[31] = tested on: K-562 leukemia
[32] = tested on: SK-MEL-28 melanoma
[33] = tested on: OVCAR-3 ovarian
[34] = tested on: SF-268 CNS
[35] = tested on: A498 renal
[36] = tested on: HOP-62 NSCLC
[37] = tested on: NCI-H460 lung
[38] = tested on: SNB-75 CNS
[39] = tested on: OVCAR-5 ovarian
[40] = tested on: NCI-H522 lung
[41] = tested on: RXF 393 renal
[42] = tested on: SN12C renal
[43] = tested on: NCI-H226 lung
[44] = tested on: U251 CNS
[45] = tested on: MDA-MB-231 breast
[46] = tested on: CCRF-CEM leukemia
[47] = tested on: MALME-3M melanoma
[48] = tested on: HCT-116 colon
[49] = tested on: SW-620 colon
[50] = tested on: SR leukemia
[51] = tested on: IGROV1 ovarian

`COc1cc(/C=C2\C[C@H]3[C@@H]4CCc5cc(OCCN6CCCC6)ccc5[C@H]4CC[C@]3(C)C2=O)cc(OC)c1OC` was tested, and the TGI [1] was over 100000 nM, the TGI [2] was 2810 nM and the TGI [3] was 5340 nM. For the same compound, the TGI [4] was 3770 nM, the TGI [5] was 2860 nM and the TGI [6] was 7400 nM. For the same compound, the TGI [7] was 4890 nM, the TGI [8] was 7220 nM and the TGI [9] was 3360 nM. The TGI [10] was 8300 nM and the TGI [11] was 3560 nM.

Work on `COc1ccc2sc3c(NCCCN)nc4ccccc4c3c(=O)c2c1` yielded a GI50 [12] of 1700 nM, a TGI [12] of 3480 nM and a GI50 [13] of 1860 nM. It also gave a TGI [13] of 3560 nM, a GI50 [1] of 1690 nM and a TGI [1] of 3550 nM. The GI50 [14] was 1640 nM, the TGI [14] was 3390 nM and the GI50 [15] was 1740 nM. For the same compound, the TGI [15] was 3210 nM, the GI50 [16] was 1660 nM and the TGI [16] was 3340 nM. The GI50 [17] was 1690 nM, the TGI [17] was 3070 nM and the GI50 [18] was 1740 nM. For the same compound, the TGI [18] was 3180 nM, the GI50 [19] was 1850 nM and the TGI [19] was 3890 nM. For the same compound, the GI50 [20] was 1360 nM, the TGI [20] was 3390 nM and the GI50 [2] was 1800 nM. The TGI [2] was 3710 nM, the GI50 [21] was 1790 nM and the TGI [21] was 3360 nM. The GI50 [22] was 1430 nM, the TGI [22] was 2820 nM and the GI50 [23] was 1600 nM. For the same compound, the TGI [23] was 3060 nM, the GI50 [3] was 2000 nM and the TGI [3] was 3980 nM. The GI50 [24] was 1750 nM, the TGI [24] was 3390 nM and the GI50 [25] was 1750 nM. It also gave a TGI [25] of 3170 nM, a GI50 [26] of 1890 nM and a TGI [26] of 3630 nM. It also gave a GI50 [27] of 1630 nM, a TGI [27] of 3110 nM and a GI50 [28] of 1480 nM. It also gave a TGI [28] of 3170 nM, a GI50 [29] of 1500 nM and a TGI [29] of 3050 nM. The GI50 [30] was 1740 nM, the TGI [30] was 3650 nM and the GI50 [31] was 1110 nM. For the same compound, the TGI [31] was 3400 nM, the GI50 [4] was 1540 nM and the TGI [4] was 3050 nM. The GI50 [32] was 1800 nM, the TGI [32] was 3280 nM and the GI50 [5] was 1820 nM. The TGI [5] was 3370 nM, the GI50 [6] was 1760 nM and the TGI [6] was 3430 nM. For the same compound, the GI50 [33] was 1770 nM, the TGI [33] was 3320 nM and the GI50 [7] was 1910 nM. For the same compound, the TGI [7] was 3880 nM, the GI50 [34] was 1660 nM and the TGI [34] was 3440 nM. For the same compound, the GI50 [35] was 1520 nM, the TGI [35] was 5590 nM and the GI50 [36] was 1700 nM. It also gave a TGI [36] of 3460 nM, a GI50 [37] of 1860 nM and a TGI [37] of 3550 nM. The GI50 [38] was 1380 nM, the TGI [38] was 2720 nM and the GI50 [39] was 1680 nM. The TGI [39] was 3280 nM, the GI50 [8] was 1720 nM and the TGI [8] was 3210 nM. For the same compound, the GI50 [9] was 1820 nM, the TGI [9] was 3360 nM and the GI50 [40] was 1630 nM. For the same compound, the TGI [40] was 3490 nM, the GI50 [10] was 1610 nM and the TGI [10] was 3660 nM. For the same compound, the GI50 [41] was 1500 nM, the TGI [41] was 2900 nM and the GI50 [42] was 1630 nM. For the same compound, the TGI [42] was 3110 nM, the GI50 [43] was 1840 nM and the TGI [43] was 3840 nM. The GI50 [44] was 1620 nM, the TGI [44] was 3190 nM and the GI50 [45] was 1520 nM. It also gave a TGI [45] of 3000 nM, a GI50 [46] of 1790 nM and a TGI [46] of 3660 nM. It also gave a GI50 [47] of 1780 nM, a TGI [47] of 3320 nM and a GI50 [48] of 1500 nM. The TGI [48] was 2850 nM, the GI50 [11] was 1810 nM and the TGI [11] was 3310 nM. It also gave a GI50 [49] of 1760 nM, a TGI [49] of 3440 nM and a GI50 [50] of 832 nM. For the same compound, the TGI [50] was 3220 nM, the GI50 [51] was 1670 nM and the TGI [51] was 3190 nM.
